Results on 17 compounds are retold here after patent US20240425529A1, “BORIC ACID DERIVATIVE” (SHOUYAO HOLDINGS (BEIJING) CO., LTD., priority 2021, published 2024).

The nature of data set [1]: Animal pharmacokinetic study in rats, single gavage. Particulars: rat, po; male rats, single gavage 5 mg/kg, plasma. Format: in vivo. The protocol:
Three healthy adult male rats from Beijing Vital River Experimental animal Technology Co. Ltd were used for animal pharmacokinetic experiments. The compounds were suspended in 20% sulfobutyl ether-β-cyclodextrin (W/W/V) at a concentration of 1 mg/mL at a dosing volume of 5 mL/kg by single gavage at a dose of 5 mg/kg. Animals were fasted overnight before the experiment, from 10 hours before the administration to 4 hours after the administration. Blood was collected at 0.25, 0.5, 1, 2, 4, 6, 8, and 24 hours after the administration. The animals were anesthetized with isoflurane. About 0.4 mL of whole blood was collected from the orbital venous plexus using a glass blood collection tube and placed in a heparin anticoagulant tube. The sample was centrifuged at 4200 rpm for 5 min at 4° C. The plasma was transferred to a centrifuge tube and stored at −80° C. for later analysis. The plasma sample analysis used the acetonitrile protein precipitation method to extract the compound to be tested and internal standard (Warfarin or Propranolol) from rat plasma, and the extraction solution was analyzed by LC/MS/MS. The plasma concentration-time data of individual animals measured were analyzed using anon-compartmental model using the WinNonlin (version 5.2.1; Pharsight company) software, and the following pharmacokinetic parameters were obtained: maximum (peak) plasma drug concentration Cmax; Time to max Tmax; the area under the curve AUC0-inf of blood drug concentration-time from half-life T½ and extrapolation to infinite time.

Data set [2] addresses T1, LMP7 (Homo sapiens, UniProt P28062).
T1 construct: using MOLT-4 cell lysate as the enzyme source of LMP7; endogenous in cells; host or cells: MOLT-4 (human acute lymphoblastic leukemia cells)
Description: Enzymatic inhibitory activity on LMP7 (MOLT-4 cell lysate, Ac-ANW-AMC substrate). In kind it is biochemical. Particulars: 1 hour pre-incubation. A digest of the protocol:
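Enzyme source was MOLT-4 cell lysate (20 ng/μl final) in 20 mM Tris pH 8.0, 0.5 mM EDTA, preincubated 1 h at 23 °C with compound at 9 final concentrations (0–2000 nM). Ac-ANW-AMC ([…]) was then added, 2 h at 23 °C in the dark. AMC fluorescence (ex 345/em 445 nm) gave the IC50.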

The target in a further data set is T2, β5 (Homo sapiens, UniProt P28074).
T2 construct: using HEK-293 cell lysate as the enzyme source of D5; endogenous in cells; host or cells: HEK-293 (human embryonic kidney cells)
Description: Enzymatic inhibitory activity on β5 (HEK-293 cell lysate, Ac-WLA-AMC substrate). In kind it is biochemical. As to conditions: 1 hour pre-incubation. The gist of the method: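 HEK-293 lysate (25 ng/μl final) preincubated 1 h at 23 °C with compound (9-point, 5-fold dilutions) in 20 mM Tris pH 8.0, 0.5 mM EDTA. Ac-WLA-AMC then added at 20 μM final for 2 h at 23 °C in the dark. AMC fluorescence read at Ex 345/Em 445 nm; IC50 from curve fit.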

Data set [3] has as its target T1, LMP7. Description: Cytological inhibitory activity on LMP7 in MOLT-4 cells. Format: cell-based. Particulars: incubation for 2 hours with compound, read-out: Cytological activity data LMP7 Activity (MOLT-4Cell). A digest of the protocol:
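MOLT-4 cells pre-incubated 2 h with compound (8 concentrations, 5-fold dilution series from 2 mM DMSO stock, 5% FBS), washed and lysed. Lysate (20 ng/μl, 2× stock) reacted with Ac-ANW-AMC (100 μM, 2× stock) in 20 mM Tris pH 8.0, 0.5 mM EDTA, 1 h, 23 °C. Fluorescence at 345/445 nm; IC50 fitted.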

For the compound `O=C(Nc1nccs1)C(=O)N[C@@H](Cc1coc2ccccc12)B(O)O` [Ex. 25, (R)-(2-(benzofuran-3-yl)-1-(2-oxo-2-(thiazol-2-ylamino)acetamido)ethyl) boronic acid], in data set [1], the AUC(0-inf) (commonly the area under the concentration-time curve extrapolated to infinity) turned out to be 108000 ng·h/mL; the peak level (Cmax) was 7710 ng/mL; the Tmax – broadly, the time at which the peak concentration occurs – turned out to be 0.42 h; the half-life (usually the time needed for the level to fall by half in the phase considered) was 14.4 h.
On LMP7 [2], `O=C(N[C@@H](Cc1coc2ccccc12)B(O)O)C(=O)N1CCOCC1` [Ex. 5, (R)-(2-(benzofuran-3-yl)-1-(2-morpholino-2-oxoacetamido)ethyl)boronic acid] registered an IC50 of 15.6 nM. In data set [1], the AUC(0-inf) was 20900 ng·h/mL, the Cmax (usually the maximum level reached in the sampled fluid or tissue) was 3800 ng/mL, the Tmax worked out at 1.17 h and the half-life was 4.2 h.
In the case of `CC1(C)[C@@H]2C[C@H]3OB([C@H](Cc4coc5ccccc45)NC(=O)C(=O)Nc4ccccc4F)O[C@@]3(C)[C@H]1C2` [Ex. 52, (R)-(2-(benzofuran-3-yl)-1-(2-oxo-2-(2-fluorophenylamino)acetamido)ethyl) boronic acid (1S,2S,3R,5S)-(+)-pinane-2,3-diol ester], the IC50 is 1.61 nM against LMP7 [2], 32.4 nM at β5 and 4.94 nM on LMP7 [3].
For the compound `O=C(Nc1cc(Cl)ccc1Cl)C(=O)N[C@@H](Cc1coc2ccccc12)B(O)O` [Ex. 24, ((R)-2-(benzofuran-3-yl)-1-(2-oxo-2-((2,5-dichlorophenyl)amino)acetamido)ethyl)boronic acid], the IC50 was found to be 6.27 nM at LMP7 [2], 115 nM against β5 and 3.92 nM on LMP7 [3].
On to `CC1(C)COB([C@H](Cc2coc3ccccc23)NC(=O)C(=O)Nc2cnccn2)OC1` [Ex. 71], for which the figures for the IC50 at LMP7 [2], on β5 and on LMP7 [3] were 1.18 nM, 28.5 nM and 1.35 nM, respectively.
As for `O=C(Nc1ncc(Cl)s1)C(=O)N[C@@H](Cc1coc2ccccc12)B(O)O` [Ex. 36, (R)-(2-(benzofuran-3-yl)-1-(2-oxo-2-((5-chlorothiazol-2-yl)amino)acetamido)ethyl)boronic acid], the IC50 was 3.14 nM at LMP7 [2], 54.5 nM on β5 and 19.5 nM at LMP7 [3].
As for `Cc1cnc(NC(=O)C(=O)N[C@@H](Cc2coc3ccccc23)B(O)O)cn1` [Ex. 46, (R)-(2-(benzofuran-3-yl)-1-(2-oxo-2-((5-methylpyrazin-2-yl)amino)acetamido)ethyl)boronic acid], the figures for the IC50 against LMP7 [2], at β5 and on LMP7 [3] were 7.83 nM, 93.8 nM and 2.29 nM, respectively.
Taken in the same sequence, the figures for `Cn1cccc(NC(=O)C(=O)N[C@@H](Cc2coc3ccccc23)B(O)O)c1=O` [Ex. 58, (R)-(2-(benzofuran-3-yl)-1-(2-oxo-2-((1-methyl-2-oxo-1,2-dihydropyridin-3-yl)amino)acetamido)ethyl)boronic acid] were 0.95 nM, 84.1 nM and 5.45 nM.
Taken in the same sequence, the figures for `CC1(C)CC(C)(C)OB([C@H](Cc2coc3ccccc23)NC(=O)C(=O)Nc2cnccn2)O1` [Ex. 72] were 1.46 nM, 21.8 nM and 0.98 nM.
For `O=C(N[C@@H](Cc1coc2ccccc12)B(O)O)C(=O)N1C2CCC1COC2` [Ex. 39, (R)-(2-(benzofuran-3-yl)-1-(2-oxo-2-(3-oxa-8-azabicyclo[3.2.1]octan-8-yl)acetamido)ethyl)boronic acid], the IC50 against LMP7 [2] was determined as 5.95 nM; against β5, 392 nM; on LMP7 [3] it was 3.51 nM.
For the compound `O=C(Nc1cnccn1)C(=O)N[C@@H](Cc1coc2ccccc12)B1OC(=O)c2ccccc2O1` [Ex. 20, N-((1R)-2-(1-benzofuran-3-yl)-1-(4-oxo-2,4-dihydro-1,3,2-benzo[d][1,3,2]dioxaborinin-2-yl)ethyl)-N-(pyrazin-2-yl)oxalamide], the values for the IC50 against LMP7 [2], against β5 and on LMP7 [3] were 1.2 nM, 18.8 nM and 0.32 nM, respectively.
Take `O=C(Nc1nccs1)C(=O)N[C@@H](Cc1coc2ccccc12)B(O)O` [Ex. 13, (R)-(2-(benzofuran-3-yl)-1-(2-oxo-2-(thiazol-2-ylamino)acetamido)ethyl) boronic acid]: the IC50 against LMP7 [2] came to 3.13 nM; against β5, 58.7 nM; on LMP7 [3], 4.06 nM.
Taken in the same sequence, the figures for `COc1ncccc1NC(=O)C(=O)N[C@@H](Cc1coc2ccccc12)B(O)O` [Ex. 45, (R)-(2-(benzofuran-3-yl)-1-(2-oxo-2-((2-methoxypyridin-3-yl)amino)acetamido)ethyl)boronic acid] were 5.32 nM, 97.7 nM and 22.7 nM.
As for `O=C(Nc1cnc2ccccc2n1)C(=O)N[C@@H](Cc1coc2ccccc12)B(O)O` [Ex. 47, (R)-(2-(benzofuran-3-yl)-1-(2-oxo-2-(quinoxalin-2-ylamino)acetamido)ethyl) boronic acid], the results for the IC50 on LMP7 [2], at β5 and on LMP7 [3] were 3.1 nM, 43.5 nM and 2.32 nM, respectively.
As to `CC1(C)[C@@H]2C[C@H]3OB([C@H](Cc4coc5ccccc45)NC(=O)C(=O)Nc4ncc(Cl)s4)O[C@@]3(C)[C@H]1C2` [Ex. 35, (R)-(2-(benzofuran-3-yl)-1-(2-oxo-2-((5-chlorothiazol-2-yl)amino)acetamido)ethyl)boronic acid (1S,2S,3R,5S)-(+)-pinane-2,3-diol ester], the values for the IC50 at LMP7 [2], against β5 and on LMP7 [3] were 1.99 nM, 38.4 nM and 13.6 nM, respectively.
On the same counts, the results for `O=C(N[C@@H](Cc1coc2ccccc12)B(O)O)C(=O)N1CCCC(F)(F)C1` [Ex. 56, (R)-(2-(benzofuran-3-yl)-1-(2-oxo-2-(3,3-difluoropiperidin-1-yl)acetamido)ethyl)boronic acid] are 7.48 nM, 88.4 nM and 6.39 nM.
Consider `O=C(NCC1CCCO1)C(=O)N[C@@H](Cc1coc2ccccc12)B(O)O` (stereo partly drawn) [Ex. 22, (R)-(2-(benzofuran-3-yl)-1-(2-(((tetrahydrofuran-2-yl)methyl)amino)-2-oxoacetamido)ethyl)boronic acid], for which the IC50 at LMP7 [2] was found to be 3.57 nM; against β5, 22.2 nM; on LMP7 [3] it was 1.83 nM.
